# Experimental data published in patent US8685408B2 (priority 2006, dated 2014).
# Like-named read-outs stand apart in the source and are kept apart here.
# What was measured:
# [1] = system: EG7 tumor; design: species or system C57BL6 mice; settings: mouse, in vivo, sc
# [2] = system: dendritic cells; design: species or system mice; settings: mouse, in vivo
# [3] = system: Gb3; design: species or system mice; settings: mouse, in vivo
# [4] = system: EG7 tumor; design: species or system C57BL6 mice; settings: mouse, in vivo, sc; remark: listed apart in the source
# [5] = system: anti-OVA257-264 CD8^+T cells; design: species or system C57BL/6 mice; settings: mouse, in vivo
molecule,measurement,setting,value
"CCCCCCCCCCCCCCCCCCCCCCCCCC(=O)N[C@@H](CO[C@H]1O[C@H](CO)[C@H](O)[C@H](O)[C@H]1O)[C@H](O)[C@H](O)CCCCCCCCCCCCCC [α-GalCer, (2S,3S,4S)-1-O-(α-D-galactopyranosyloxy)-2-hexacosanoylamino-3,4-octadecanediol]",growth of EG7 tumor,[1],did not control the growth of the tumor
same,costimulatory molecules (CD86) and MHC class II / activation of dendritic cells,[2],rapid increase
same,membrane expression of Gb3 on dendritic and B cells,[3],did not regulate
Poly (I:C),costimulatory molecules (CD86) and MHC class II / activation of dendritic cells,[2],also activated dendritic cells
CCCCCCCCCCCCCCCCCCCCCCCCCC(=O)N[C@@H](CC[C@H]1O[C@H](CO)[C@H](O)[C@H](O)[C@H]1O)[C@H](O)[C@H](O)CCCCCCCCCCCCCC [C-αGalCer],growth of EG7 tumor,[4],will not control the growth of the tumor
"OVA (protein, UniProt P01012 2-386, looked up) Ovalbumin: GSIGAASMEFCFDVFKELKVHHANENIFYCPIAIMSALAMVYLGAKDSTRTQINKVVRFDKLPGFGDSIEAQCGTSVNVHSSLRDILNQITKPNDVYSFSLASRLYAEERYPILPEYLQCVKELYRGGLEPINFQTAADQARELINSWVESQTNGIIRNVLQPSSVDSQTAMVLVNAIVFKGLWEKAFKDEDTQAMPFRVTEQESKPVQMMYQIGLFRVASMASEKMKILELPFASGTMSMLVLLPDEVSGLEQLESIINFEKLTEWTSSNVMEERKIKVYLPRMKMEEKYNLTSVLMAMGITDVFSSSANLSGISSAESLKISQAVHAAHAEINEAGREVVGSAEAGVDAASVSEEFRADHPFLFCIKHIATNAVLFFGRCVSP",induction of anti-OVA257-264 CD8^+T cells,[5],no significant induction
